The source of these data is paper PMC6396024, “Artemin and an Artemin-Derived Peptide, Artefin, Induce Neuronal Survival, and Differentiation Through Ret and NCAM” (Frontiers in Molecular Neuroscience, 2019).

The subject of assay [1] is GFRα1. Description: SPR binding to immobilized GFRα1/Fc. The conditions noted are these: artefin 15.6 μM. A general note: SPR reads the build-up and loss of mass on a sensor chip optically.
The test system of another assay is GFRα2. Description: SPR binding to immobilized GFRα2/Fc. The note with it: artefin 15.6 μM.
Assay [2] deals with cerebellar granule neurons (CGNs). Description: Neurite outgrowth assay in CGNs. Format: cell-based, Wistar rat. The conditions noted are these: 24 h; for maximum level of neurite outgrowth: untreated control = 100%, mean of four independent experiments; for neurite outgrowth, single agent in competition assay: ARTN 2.1 nM alone or artefin 4.2 μM alone, paired t-test versus control; for overall neuritogenic effect: ARTN 0.013–2.1 nM, artefin 0.16–37.9 μM, one-way ANOVA. The procedure:
Cerebellar granule neurons (CGNs) were prepared from 7-day-old Wistar rat pups (Charles River Laboratories, Sulzfeld, Germany) as previously described ([Schousboe et al., 1989]). Briefly, pups were decapitated, and the cerebellum was removed and cleared from blood vessels and meninges in ice-cold modified Krebs-Ringer buffer. The cerebellum was dissociated by chopping and trypsinization. Cells were washed in Krebs-Ringer buffer containing DNAse I (Sigma, St. Louis, MO, United States) and soybean trypsin inhibitor (Sigma) to stop trypsinization, and the remaining tissue pieces were pelleted by centrifugation. Cells were then washed in Krebs-Ringer buffer containing Ca^2+ and Mg^2+ and re-suspended in appropriate Neurobasal^TM medium (Invitrogen, Taastrup, Denmark) with supplements depending on the experiment.
Cerebellar granule neurons CGNs were re-suspended in Neurobasal^TM medium supplemented with 2% (v/v) B27, 0.5% (v/v) glutamax, 100 U/ml penicillin, 100 μg/ml streptomycin, 0.4% (w/v) BSA, and 20 mM HEPES and were seeded in 8-well LabTek Permanox chamber slides (Nunc) at a density of 1 × 10^4 cells/cm^2. Various concentrations of ARTN, artefin, scrambled artefin, or reversed artefin were added to neurons immediately after seeding. For the RET inhibition assay, the inhibitory goat anti-mouse RET antibody (4.1 μg/ml; R&D systems, Abingdon, United Kingdom) or control goat IgG (4.1 μg/ml; Santa Cruz Biotechnology, Dallas, TX, United States) were added to neurons 1 h before stimulation with ARTN (0.042 nM) […]. For the competition assay between growth factor and mimetic peptide, a combination of ARTN (2.1 nM) and artefin (4.2 μM) was added to the cells immediately after seeding. To inhibit Fibroblast growth factor receptor (FGFR) pharmacologically, inhibitor of FGFR, SU5402 (Sigma), was added to the growth medium in serial dilutions of 20, 40, and 80 μM immediately after plating of CGNs, followed by addition of either P2-d (8 μg/ml), ARTN (0.21 nM), or artefin (1.4 μM) 1 h after the plating.
To estimate neurite outgrowth, neurons were fixated 24 h after stimulation and stained with rabbit anti-growth-associated-protein-43 (GAP-43) antibody (Chemicon International, Inc., Temecula, CA, United States) or anti-GFP antibody (for transfection experiment) overnight at 4°C followed by incubation with secondary Alexa-conjugated goat anti-rabbit antibodies (Invitrogen, Taastrup, Denmark). In case of experiments with plasmid transfection, the transfection efficiency was ca. 20% of total cells and the neurite outgrowth was evaluated only in GFP-positive, i.e., transfected, cells. For representative pictures, cells were additionally co-stained with Hoechst 33258.
Computer-assisted fluorescent microscopy was performed using a Nikon Diaphot 300 inverted microscope (Nikon) equipped with a Nikon Plan 20× objective and coupled to a video camera (Grundig Electronics, Germany). For each condition in each experiment, including the experiment with transfections, images of approximately 200 cells were recorded in systematic series of fields of view, and neurite outgrowth was quantified using a stereological approach as previously described ([Rønn et al., 2000]).
FIGURE 3 Neurite outgrowth induced by ARTN (A), artefin-dendrimer (B), and artefin-monomer (C) in CGNs. Cells were stimulated with ARTN (0.013, 0.042, 0.13, 0.42, and 2.1 nM) or artefin (0.16, 0.47, 1.4, 4.2, 12.6, and 37.9 μM) for 24 h. For the unstimulated control, the absolute length of neurites was 11.47 ± 1.5 μm. Results from four independent experiments are expressed as percentage of untreated control set to 100% and presented as mean ± SEM. The mean neurite outgrowth lengths were compared using one-way ANOVA for repeated measurements. The effect of individual concentrations of ARTN and artefin was compared to control using one-way ANOVA with Dunnett’s post-hoc test, ^∗p < 0.05; ^∗∗p < 0.01. […]

For assay [3], the system named is GFRα1. Also on record: method as in Scott and Ibañéz, 2001. The note with it: previously shown; ref Scott and Ibañéz, 2001; cited from earlier work.
The subject of a further assay is dopaminergic neurons. The note with it: in vitro; ref Rosenblad et al., 2000; Sariola and Saarma, 2003; cited from earlier work. The source says: (§1) Artemin (ARTN) is a member of the glial cell line-derived neurotrophic factor family ligands (GFLs) which includes three other members: glial cell line-derived neurotrophic factor (GDNF), neurturin (NRTN), and persephin (PSPN) ([Baloh et al., 1998b]; [Airaksinen and Saarma, 2002]). GFLs affect the generation, survival, and growth of neurons in different CNS neuronal populations, including midbrain dopaminergic neurons, central motor neurons, and noradrenergic neurons ([Airaksinen and Saarma, 2002]). Similar to GDNF, ARTN is a potential neuroprotective agent as it promotes the survival of dopam ...

The next assay has as its system mice. The note with it: intracerebroventricular, ref Mannelli et al., 2011; cited from earlier work.
Text: as §1

The target of assay [4] is T1, recombinant rat NCAM Ig1–3 (rat, UniProt P13596 20-308).
T1 construct: neural cell adhesion molecule (NCAM), rat, Ig1–3 domains; also called NCAM Ig1–3 domain; source: recombinant, produced as described previously (Soroka et al., 2003)
T1 sequence (P13596 20-308): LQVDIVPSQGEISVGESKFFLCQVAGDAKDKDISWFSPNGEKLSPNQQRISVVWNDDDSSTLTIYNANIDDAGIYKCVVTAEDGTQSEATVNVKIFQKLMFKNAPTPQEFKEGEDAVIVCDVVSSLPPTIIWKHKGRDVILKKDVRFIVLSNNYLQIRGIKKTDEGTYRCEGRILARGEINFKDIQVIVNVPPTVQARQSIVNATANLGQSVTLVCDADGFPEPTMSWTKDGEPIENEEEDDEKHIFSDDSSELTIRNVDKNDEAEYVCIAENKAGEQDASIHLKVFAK
Description: SPR; Biacore 2000, 25°C, HBS-EP (10 mM HEPES pH 7.4, 150 mM NaCl, 3 mM EDTA, 0.005% P20); ARTN (~2300 RU) or artefin (~1600 RU) amine-coupled on a CM4 chip; serially diluted GFRα3/Fc or NCAM Ig1–3 injected at 20 μl/min; 1:1 interaction model or steady-state affinity analysis. The conditions noted are these: both partners purified.

Bridge positions count the residues as written; N and C are the ends. Ends that are not written are not given here. I, II: the chains in the order shown.

As for “I: RSPHDLSLASLLGAGKK-NH2 / II: RSPHDLSLASLLGAGK / III: RSPHDLSLASLLGAG / IV: RSPHDLSLASLLGAG (amide I:16-IV:C, I:17-II:C, II:16-III:C; C-terminus assumed) [artefin]”, the “binding to GFRα1” value in the assay on GFRα1 [1] is on record as “binds to GFRα1”. Besides, in the assay with GFRα2, the “binding to GFRα2” value was “binds to GFRα1 and GFRα2”. Besides, in assay [2] (artefin as dendrimer), the “concentration of maximum neurite outgrowth” value is 4.2 µM and the “maximum level of neurite outgrowth” value is on record as 404 % of control. In addition, the “neurite outgrowth compared to ARTN” value in assay [2] (artefin dendrimer, higher length of neurites) is recorded as “more effective (higher length of neurites) than ARTN”. Also, in assay [2], the “neurite outgrowth, single agent in competition assay” value is “significant increase in neurite outgrowth (p < 0.001)” and the overall neuritogenic effect result is listed as “statistically significant (F = 9.723, p < 0.0001)”. In addition, in assay [2] (artefin 4.2 μM co-incubated with ARTN 2.1 nM, p < 0.001 versus artefin alone), the “neurite outgrowth effect of artefin in the presence of ARTN” value is “eliminated”. For the same molecule, the “neurite outgrowth, sequence specificity” value in assay [2] (tetramers, 4.2 μM, paired t-test versus untreated control) is recorded as “statistically significant increase in neurite length when compared to the control condition (p < 0.01)”.

B1: recombinant human Artemin (ARTN) (ligand, UniProt Q5T4W7 108-220, looked up)
chain: AGGPGSRARAAGARGCRLRSQLVPVRALGLGHRSDELVRFRFCSGSCRRARSPHDLSLASLLGAGALRPPPGSRPVSQPCCRPTRYEAVSFMDVNSTWRTVDRLSATACGCLG
notes: Artemin (ARTN), human, UniProt D3DPX9; source: bought: R&D Systems
As a reminder, the Kd is the constant that tells how readily two partners part at equilibrium. On to B1, for which, in the assay on GFRα1 [3], the “interaction with GFRα1” value is given as “previously been shown to interact with GFRα1”. Also, the “survival of dopaminergic neurons” value in the assay on dopaminergic neurons was “promotes the survival of dopaminergic neurons in vitro”. Further, in the assay with mice, the antidepressant effects result is “dose-dependent antidepressant effects”. In assay [2], the “concentration of maximum neurite outgrowth” value is 4.2e-05 µM; the “neurite outgrowth, single agent in competition assay” value was “equivalent to that of the control condition”; the overall neuritogenic effect entry is reported as “statistically significant (F = 5.069, p < 0.01)”. Besides, in assay [2] (artefin as dendrimer), the “maximum level of neurite outgrowth” value was 210 % of control. The “dose-response of neurite outgrowth” value in assay [2] (0.013–2.1 nM) is on record as “bell-shaped dose-response manner”. The Kd in assay [4] was found to be 13 µM.
